Measured values reported in patent US8598078B2, “Condensed anthran I lami de derivatives as insecticides” (Syngenta Crop Protection, LLC, priority 2007, dated 2013).
Where two headings read alike, the source gives them in different places.

Legend:
Type in all cases: in vivo
[1] = test system: Diabrotica balteata (corn root worm); experiment: Diabrotica balteata (larvicide, feeding/residual contact activity, preventive), artificial diet MTP; conditions: 120 h, read-out: activity (larval mortality, antifeedant, growth regulation)
Procedure: Diabrotica balteata (Corn Root Worm)
(§1) (Larvicide, Feeding/Residual Contact Activity, Preventive)
24-well microtiter plate (MTP) with artificial diet was treated with test solutions by pipetting. After drying, the MTP's were infested with larvae (L2) (6-10 per well). After an incubation period of 5 days, samples were checked for larval mortality, antifeedant and growth regulation.

[2] = test system: Thrips tabaci (onion thrips); experiment: Activity against Thrips tabaci (mixed population, feeding/residual contact activity, preventive), sunflower leaf discs; conditions: foliar, 144 h, read-out: activity (mortality and special effects)
Procedure: Activity Against Thrips tabaci (Onion Thrips)
(§2) (Mixed Population, Feeding/Residual Contact Activity, Preventive)
(§3) Sunflower leaf discs were placed on agar in a 24-well microtiter plate and sprayed with test solutions. After drying, the leaf discs were infested with a thrips population of mixed ages. After an incubation period of 6 days, samples were checked for mortality and special effects (e.g. phytotoxicity).

[3] = test system: Plutella xylostella (diamond back moth); experiment: Plutella xylostella (larvicide, feeding/residual contact activity, preventive), artificial diet MTP; conditions: 120 h, read-out: activity (larval mortality, antifeedant, growth regulation)
Procedure: Plutella xylostella (Diamond Back Moth)
as §1
24-well microtiter plate (MTP) with artificial diet was treated with test solutions by pipetting. After drying, the MTP's were infested with larvae (L2) (10-15 per well). After an incubation period of 5 days, samples were checked for larval mortality, antifeedant and growth regulation.

[4] = test system: Myzus persicae (green peach aphid); experiment: Activity against Myzus persicae (mixed population, feeding/residual contact activity, preventive), sunflower leaf discs; conditions: foliar, 144 h, read-out: activity (mortality and special effects)
Procedure: (§4) Activity Against Myzus persicae (Green Peach Aphid)
as §2
as §3, with “an aphid” for “a thrips”

[5] = test system: Heliothis virescens (tobacco budworm); experiment: Activity against Heliothis virescens (ovo-larvicide, feeding/contact activity, curative), eggs on artificial diet; conditions: read-out: activity (egg mortality, larval mortality, growth regulation)
Procedure: Activity Against Heliothis virescens (Tobacco Budworm)
(Ovo-Larvicide, Feeding/Contact Activity, Curative)
Eggs (0-24 h old) were placed in 24-well microtiter plate on artificial diet and treated with test solutions by pipetting. After an incubation period of 4 days, samples were checked for egg mortality, larval mortality, and growth regulation.

[6] = test system: Spodoptera littoralis (Egyptian cotton leafworm); experiment: Activity against Spodoptera littoralis (larvicide, feeding/residual contact activity, preventive), cotton leaf discs; conditions: foliar, 72 h, read-out: activity (mortality, repellent effect, feeding behaviour, growth regulation)
Source text: Activity Against Spodoptera littoralis (Egyptian Cotton Leafworm)
as §1
Cotton leaf discs were placed on agar in a 24-well microtiter plate and sprayed with test solutions. After drying, the leaf discs were infested with 5 L1 larvae. The samples were checked for mortality, repellent effect, feeding behaviour, and growth regulation 3 days after treatment.

[7] = test system: Myzus persicae (green peach aphid); experiment: Activity against Myzus persicae (mixed population, systemic/feeding activity, curative), pea seedling roots in test solution; conditions: 144 h, read-out: activity (mortality and special effects on the plant)
Source text: as §4
(Mixed Population, Systemic/Feeding Activity, Curative)
Roots of pea seedlings, infested with an aphid population of mixed ages, were placed directly in the test solutions. 6 days after introduction, samples were checked for mortality and special effects on the plant.

[8] = 400 ppm, L2 larvae on treated artificial diet, 5 days incubation
[9] = 400 ppm, mixed-age aphids on sprayed sunflower leaf discs, 6 days incubation
[10] = 400 ppm, eggs 0-24 h old on artificial diet, 4 days incubation
[11] = 400 ppm, L1 larvae on sprayed cotton leaf discs, 3 days after treatment
[12] = 400 ppm, systemic, roots of infested pea seedlings in test solution, 6 days

Measured: mortality at 400 ppm

COC(=O)N(C)Cn1cc2cc(C)c(NC(=O)c3cc(OC)nn3-c3ncccc3Cl)c(C(=O)NC(C)C)c2n1 [P.11]
> 80%: [1] | [2] | [3] | [4] | [5] | [6] | [7]

CCCCCCCCCCCCCCCCCCOCCOC(=O)n1cc2cc(C)c(NC(=O)c3cc(OC)nn3-c3ncccc3Cl)c(C(=O)NC(C)C)c2n1 [P.30]
> 80%: [1]; [8] | [3]; [8] | [4]; [9] | [5]; [10] | [6]; [11] | [7]; [12]

CCCCN(CCCC)C(=O)n1cc2cc(C)c(NC(=O)c3cc(OC)nn3-c3ncccc3Cl)c(C(=O)NC(C)C)c2n1 [P.35]
> 80%: [2] | [3] | [5]

COCn1cc2cc(C)c(NC(=O)c3cc(OC)nn3-c3ncccc3Cl)c(C(=O)NC(C)C)c2n1 [P.3]
> 80%: [2] | [3] | [4] | [5] | [6] | [7]

COc1cc(C(=O)Nc2c(C)cc3cnn(CC#N)c3c2C(=O)NC(C)C)n(-c2ncccc2Cl)n1 [P.14]
> 80%: [2] | [3] | [4] | [5] | [6] | [7]

CCCCCCOCCOC(=O)n1cc2cc(C)c(NC(=O)c3cc(OC)nn3-c3ncccc3Cl)c(C(=O)NC(C)C)c2n1 [P.24]
> 80%: [1] | [3] | [4] | [5] | [6] | [7]

COCn1cc2cc(Cl)c(NC(=O)c3cc(C(F)(F)F)nn3-c3ncccc3Cl)c(C(=O)NC(C)C)c2n1 [P.6]
> 80%: [1] | [2] | [3] | [4] | [5] | [6] | [7]

COc1ccc(Cn2cc3cc(C)c(NC(=O)c4cc(OC)nn4-c4ncccc4Cl)c(C(=O)NC(C)C)c3n2)cc1 [P.34, 6-{[2-(3-chloro-pyridin-2-yl)-5-methoxy-2H-pyrazole-3-carbonyl]-amino}-2-(4-methoxy-benzyl)-5-methyl-2H-indazole-7-carboxylic acid isopropyl amide]
> 80%: [2] | [3] | [4] | [5] | [6] | [7]

CCCCCCCCCCOCCOC(=O)n1cc2cc(C)c(NC(=O)c3cc(OC)nn3-c3ncccc3Cl)c(C(=O)NC(C)(C)C)c2n1 [P.28]
> 80%: [3]; [8] | [4]; [9] | [5]; [10] | [6]; [11] | [7]; [12]

C=CCn1cc2cc(C)c(NC(=O)c3cc(OC)nn3-c3ncccc3Cl)c(C(=O)NC(C)C)c2n1 [P.8]
> 80%: [1] | [2] | [3] | [4] | [5] | [6] | [7]

COc1cc(C(=O)Nc2c(C)cc3cn(C(=O)N(C)c4ccccc4)nc3c2C(=O)NC(C)C)n(-c2ncccc2Cl)n1 [P.36]
> 80%: [2] | [3] | [5] | [7]

COCCOCn1ncc2cc(C)c(NC(=O)c3cc(OC)nn3-c3ncccc3Cl)c(C(=O)NC(C)C)c21 [P.13, 6-{[2-(3-chloro-pyridin-2-yl)-5-methoxy-2H-pyrazole-3-carbonyl]-amino}-1-(2-methoxy-ethoxymethyl)-5-methyl-1H-indazole-7-carboxylic acid isopropylamide]
> 80%: [2] | [3] | [4] | [5] | [6] | [7]

COc1cc(C(=O)Nc2c(C)cc3cn(C(=O)C4(C)CCCCC4)nc3c2C(=O)NC(C)C)n(-c2ncccc2Cl)n1 [P.32]
> 80%: [1] | [2] | [3] | [4] | [5] | [6] | [7]

COc1cc(C(=O)Nc2c(C)cc3cn(CC(F)(F)F)nc3c2C(=O)NC(C)C)n(-c2ncccc2Cl)n1 [P.10]
> 80%: [2] | [3] | [4] | [5] | [6]

COc1cc(C(=O)Nc2c(C)cc3cn(C(=O)CC(C)(C)C)nc3c2C(=O)NC(C)C)n(-c2ncccc2Cl)n1 [P.27]
> 80%: [1] | [2] | [3] | [4] | [5] | [6] | [7]

COc1cc(C(=O)Nc2c(C)cc3cn(Cc4ccccc4)nc3c2C(=O)NC(C)C)n(-c2ncccc2Cl)n1 [P.33]
> 80%: [1] | [2] | [3] | [4] | [5] | [6]

C#CCn1cc2cc(C)c(NC(=O)c3cc(OC)nn3-c3ncccc3Cl)c(C(=O)NC(C)C)c2n1 [P.7]
> 80%: [1] | [2] | [3] | [4] | [5] | [6] | [7]

CCS(=O)(=O)N(C)Cn1cc2cc(C)c(NC(=O)c3cc(OC)nn3-c3ncccc3Cl)c(C(=O)NC(C)C)c2n1 [P.17]
> 80%: [3] | [4] | [5] | [6] | [7]

COC(=O)N(C)Cn1ncc2cc(C)c(NC(=O)c3cc(OC)nn3-c3ncccc3Cl)c(C(=O)NC(C)C)c21 [P.15]
> 80%: [1] | [2] | [3] | [4] | [5] | [6] | [7]

CCCCCCCC/C=C\CCCCCCCC(=O)n1cc2cc(C)c(NC(=O)c3cc(OC)nn3-c3ncccc3Cl)c(C(=O)NC(C)C)c2n1 [P.25]
> 80%: [2]; 400 ppm, mixed-age thrips on sprayed sunflower leaf discs, 6 days incubation | [3]; [8] | [4]; [9] | [5]; [10] | [6]; [11]

CCS(=O)(=O)N(C)Cn1ncc2cc(C)c(NC(=O)c3cc(OC)nn3-c3ncccc3Cl)c(C(=O)NC(C)C)c21 [P.18]
> 80%: [3] | [4] | [5] | [6] | [7]
